Data as given in patent publication US10350169B2, “Compositions and methods for bile acid particles” (UNIVERSITY OF UTAH RESEARCH FOUNDATION, priority 2014, dated 2019).

Assays:
HT-29 xenograft = experiment: In vivo therapeutic efficacy in tumor bearing animal model; design: species or system NOD/SCID mice; details: oral, 10 mg/kg DOX, over 12 days
Procedure: In vivo therapeutic efficacy in a tumor bearing animal model. The in vivo anticancer efficacy of free DOX, the cationic DOX-loaded liposome without a bile acid coating (“DOX-liposome”), and the anionic DOX-loaded liposome with the CS-TCA coating (“DL/CS-TCA”) was evaluated in a xenograft mouse model. HT-29 cells (1×10^7 cells per mouse) were subcutaneously injected into the back of NOD/SCID mice (n=3). When the tumor size reached approximately 100-150 mm^3, each mouse received an oral administration of PBS, 10 mg/kg free DOX, 10 mg/kg DOX in the DOX-liposome composition, or 10 mg/kg DOX in the DL/CS-TCA composition, once every two days. Tumor size and body weight were measured every 2 days. Tumor volumes were measured with a digital caliper and the tumor volume was calculated using the equation shown below. Tumor volume=(Length×width^2)/2

[1] = cited from earlier work
[2] = DOX biodistribution in tumor-bearing mice (DOX fluorescence); format: in vivo, HepG2 tumor-bearing NOD/SCID mice; details: IV injection, 4 hr, versus orally administered groups
Procedure: Biodistribution. A biodistribution study was performed in HepG2 tumor-bearing NOD/SCID mice. The major organs and intestinal tract of each mouse were collected 4 hr after administration of the formulations. The liver, kidney, heart, stomach, small intestine including duodenum, jejunum, ileum, and tumor of each mouse was collected and suspended in 70% ethanol with 0.3 N HCl. The samples were then homogenized to extract the doxorubicin, and then the samples were refrigerated for 24 hr and centrifuged to collect supernatant. For analysis, 200 μL of the supernatant was loaded in a black opaque plate and DOX fluorescence was measured using a plate reader, where the wavelengths of excitation and emission were 470 and 590 nm, respectively.

[3] = test system: HepG2 xenograft mouse model; experiment: In vivo efficacy in tumor bearing animal model
Procedure: In vivo efficacy in a tumor bearing animal model. The in vivo anticancer efficacy of free DOX and the DDP/H-TCA composition was evaluated in a HepG2 xenograft mouse model. Animals which were treated with free DOX delivered via both orally and via IV administration were used as a control group, and DDP/H-TCA compositions were administered orally every 3 days at a dose of 4 mg DOX/kg, up to 18 days.
HepG2 cells (5×10^6 cells/mL) in 100 μL PBS were injected subcutaneously into the back of each mouse. When the tumor size reached approximately 100-150 mm^3, each mouse received an oral administration of PBS, 4 mg/kg DOX, or 4 mg/kg DOX in a DDP/H-TCA composition, once every three days. In addition, an equal amount of doxorubicin was intravenously (IV) administered in a control group. Tumors were measured every three days with a digital caliper and the tumor volume was calculated using the equation shown below.
To achieve a relatively high concentration, the lyophilized powder of DDP/H-TCA particles was reconstituted in DI water just prior to in vivo administration. First, the tumor growth inhibition efficacy of bile acid-coated DOX-loaded particles was investigated in a mouse xenograft model. Doxorubicin (DOX) at a dose of 4 mg/kg, or an equivalent amount of DOX formulated as DDP/H-TCA particles, was prepared and delivered via IV or oral administration every 3 days up to 18 days to monitor tumor progression. DOX-loaded particles without a bile acid (i.e. no TCA) were also tested as a non-targeted control formulation to evaluate the tumor inhibition efficacy of the TCA. Because tumors in the PBS control group were quite aggressive and reached over 10% of the animals' body weight around day 18, all treatments were terminated and all mice were sacrificed at day 18.

HepG2 cells = experiment: In vitro cytotoxicity of polymers and DOX-loaded particles, MTT assay; format: cell-based, human; details: 0.01-100 ug/mL, 24, 48 and 72 hr
Procedure: In vitro cytotoxicity of DOX-loaded particles. To evaluate the cytotoxicity of the polymers and DOX-loaded particles, samples were transfected in a dose-dependent manner and evaluated by an MTT-based cell viability assay using HepG2 cells. Cell Culture: HepG2 cells (a human hepatoma cell line) were cultured in DMEM supplemented with 10% FBS and D-glucose (4.5 g/L). Cells were grown and maintained under humidified air containing 5% CO2 at 37° C. Cell Viability: a MTT assay was used to evaluate the cell viability of bile acid-linked polymers and DOX-loaded particles. HepG2 cells were seeded into a 96-well plate at a cell density of 5×10^3 cells/well in 100 μL media. […] MTT (10 μL; 5 mg/mL) solution was then added to the wells and incubated for 4 hr. All remaining media was aspirated, and DMSO (100 μL) was added to dissolve the formazan crystals produced from living cells with 10 min incubation at 37° C. The absorbance of the cells was measured at 570 nm and their cell viability was calculated.

[4] = cited from earlier work; remark: listed apart in the source
caco-2 cells = experiment: In vitro cellular uptake of insulin-Ce6 liposomes; format: cell-based, Human; details: insulin-Ce6 10 ug/mL, 4 hr
Procedure: In vitro cellular uptake. Human epithelial colorectal adenocarcinoma cells (caco-2 cells) were maintained in Dulbeco's Modified Eagle's Medium (DMEM) with 1% penicillin-streptomycin and 10% FBS in a humidified standard incubator at 37° C. with a 5% CO2 atmosphere. Prior to testing, cells (1×10^5 cells/mL) that were grown as a monolayer were harvested via trypsinization using a 0.25% (wt/vol) trypsin/0.03% (wt/vol) EDTA solution. Caco-2 cells suspended in DMEM were seeded onto each well plate and cultured for 24 hours prior to the in vitro cell testing. The cellular uptake of the liposomes (provided in an amount equivalent to an insulin-Ce6 concentration of 10 ug/mL, treated for 4 hr) was monitored by FACSCalibur Flow Cytometer (Becton Dickinson, USA). In addition, the localization of the liposome was examined by fluorescence of the insulin-Ce6 loaded liposome using a confocal laser scanning microscope.

Compound	change in tumor volume (HT-29 xenograft)	relative body weight (HT-29 xenograft)	pKa [1]	DOX concentration in heart and liver tissues [2]	body weight ([3]; 4 mg DOX/kg every 3 days up to 18 days)	inhibition of tumor growth ([3]; IV, 4 mg/kg every 3 days, up to 18 days)	increase in tumor volume ([3]; oral, 4 mg DOX/kg every 3 days, up to 18 days) [%]	cytotoxicity (cell viability) (HepG2 cells)	oral bioavailability [4]	labeled insulin present in cells (caco-2 cells)
COc1cccc2c1C(=O)c1c(O)c3c(c(O)c1C2=O)C[C@@](O)(C(=O)CO)C[C@@H]3O[C@H]1C[C@H](N)[C@H](O)[C@H](C)O1 [DOX, doxorubicin]	not statistically better at reducing tumor volume than the buffer	decrease slightly	7.2-8.0	higher concentration of DOX was seen in the heart and liver tissues	no significant weight loss	greatest inhibition of tumor growth	~1400	highest dose-dependent cytotoxicity	about 5%	
free insulin: Ce6-labeled insulin given without liposomes										relatively little labeled insulin present
